According to patent publication US10525055B2, “Opioid receptor antagonist prodrugs” (Nirsum Laboratories, Inc., priority 2017, dated 2020):

Experiments:
MOR = biological target: T1, MOR (Homo sapiens, UniProt P35372); test: Opioid receptor binding assay, MOR ([3H]DAMGO); conditions: MOR, MaxDose 10000 nM
T1 construct: expressed in transfected cells; membranes prepared from them

[1] = Plasma stability assay, rat plasma; assay type: in vitro ADME; conditions: 37° C., 10 μM
KOR = biological target: T2, KOR (Homo sapiens, UniProt P41145); test: Opioid receptor binding assay, KOR ([3H]Diprenorphine); conditions: KOR, MaxDose 10000 nM
T2 construct: expressed in transfected cells; membranes prepared from them
T2 sequence (P41145 whole entry): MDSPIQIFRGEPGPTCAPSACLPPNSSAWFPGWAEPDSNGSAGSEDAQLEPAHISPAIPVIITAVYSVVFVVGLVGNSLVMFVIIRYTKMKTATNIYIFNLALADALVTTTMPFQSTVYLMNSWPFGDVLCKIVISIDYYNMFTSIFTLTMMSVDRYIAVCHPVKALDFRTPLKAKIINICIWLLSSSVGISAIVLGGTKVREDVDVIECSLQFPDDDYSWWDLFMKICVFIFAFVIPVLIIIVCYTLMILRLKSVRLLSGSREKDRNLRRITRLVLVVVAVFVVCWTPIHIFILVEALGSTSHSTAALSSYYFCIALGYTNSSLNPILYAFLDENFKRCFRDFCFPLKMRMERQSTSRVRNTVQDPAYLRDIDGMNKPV

[2] = Solubility determination in oil (cottonseed oil, sesame oil); conditions: heating temp. 60 °C, obs. temp. 25 °C
Description: A known amount of test substance (˜40 mg) was weighed into the vial, 100 μL of oil was added and heated to 60° C. and then system was slurried to reach equilibrium. […] Extra oil was added into the vial once compound precipitated out and then the system was re-equilibrated at 1000 rpm at room temperature (25° C.). Final concentration was determined by HPLC method as described below in Table 6a and 6b.

DOR = biological target: T3, DOR (Homo sapiens, UniProt P41143); test: Opioid receptor binding assay, DOR ([3H]-DADLE); conditions: DOR, MaxDose 10000 nM
T3 construct: expressed in transfected cells; membranes prepared from them
T3 sequence (P41143 whole entry): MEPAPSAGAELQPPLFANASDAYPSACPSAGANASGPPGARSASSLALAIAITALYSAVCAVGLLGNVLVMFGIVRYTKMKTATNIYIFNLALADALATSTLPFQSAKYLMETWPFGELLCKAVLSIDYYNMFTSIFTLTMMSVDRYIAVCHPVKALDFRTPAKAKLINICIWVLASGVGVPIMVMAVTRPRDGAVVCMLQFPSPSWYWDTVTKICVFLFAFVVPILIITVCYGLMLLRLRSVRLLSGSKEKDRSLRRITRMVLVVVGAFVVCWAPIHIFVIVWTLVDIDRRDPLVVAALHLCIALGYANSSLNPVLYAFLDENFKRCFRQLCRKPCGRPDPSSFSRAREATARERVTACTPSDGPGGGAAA

[3] = Polymorph screening of solid state drug substances; conditions: for XRPD results (Dried): stirred 50 °C 72 hours, solids dried; for Visual observation 50° C. / Visual observation RT: target conc. 100 mg/ml; for Comment: stability of initial crystal form (pattern A): polymorph screen over Heptane
[4] = Physical characterization of solid state drug substance (PLM, XRPD, DSC, TGA); assay type: physicochemical; conditions: for Thermal Gravimetric Analysis, weight loss: at 120° C., heated from room temperature at 10° C./minute
Description: The analysis of the physical characteristics of drug substances that were in a solid state was conducted using polarized light microscopy (PLM), X-ray powder diffractometer (XRPD) assessment, Differential Scanning calorimetry (DSC) and Thermal Gravimetric Analysis (TGA). For PLM, samples were dispersed in immersion oil and were observed using an ocular lens (10×) and objective lens (20×) under crossed polarizers. For XRPD, samples were run on a diffractometer using the following method: Tube—Cu: K-alpha (λ=1.54179 Å); Generator—Voltage 40 kV, Current 40 mA; Scan scope—3 to 40°; sample rotation speed—15 rpm; scanning rate—10 deg/min. For DSC, ˜1 mg of sample was tested using a crimped aluminum pan and covered by a lid with a hole, heated from room temperature to 300° C. at a speed of 10° C./minute. For TGA, 2-5 mg of sample was placed in an open platinum pan and heated from room temperature to 300° C. at a rate of 10° C./minute.

[5] = Dog pharmacokinetic studies, deep intramuscular; assay type: in vivo, Beagle dogs; conditions: dog IM, Cottonseed + 1% Benzyl Alcohol
[6] = MTBE, Isopropanol, EtOAc, Acetone

T1 sequence (P35372 whole entry): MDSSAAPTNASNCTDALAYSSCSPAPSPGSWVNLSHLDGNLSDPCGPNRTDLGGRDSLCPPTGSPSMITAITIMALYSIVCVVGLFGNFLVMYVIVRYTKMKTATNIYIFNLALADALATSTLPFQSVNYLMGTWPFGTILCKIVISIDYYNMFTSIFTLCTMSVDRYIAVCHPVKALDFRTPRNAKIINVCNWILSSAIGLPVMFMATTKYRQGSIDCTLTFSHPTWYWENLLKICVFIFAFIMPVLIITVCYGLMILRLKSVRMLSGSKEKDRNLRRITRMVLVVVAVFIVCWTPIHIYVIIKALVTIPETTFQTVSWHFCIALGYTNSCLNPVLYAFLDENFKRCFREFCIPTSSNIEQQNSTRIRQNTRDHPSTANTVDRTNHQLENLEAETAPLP

| Structure (SMILES) | %Inh@MaxDose (MOR) | % remaining at time point in minutes, 0 min [1] | % remaining at time point in minutes, 15 min [1] | % remaining at time point in minutes, 120 min [1] | % remaining at time point in minutes, 480 min [1] | % remaining at time point in minutes, 1440 min [1] | %Inh@MaxDose (KOR) | %Inh@MaxDose (DOR) | XRPD results (Dried) ([3]; Acetone) | Visual observation 50° C. ([3]; Acetone) | Visual observation RT ([3]; Acetone) | XRPD results (Dried) ([3]; EtOAc) | Visual observation 50° C. ([3]; EtOAc) | Visual observation RT ([3]; EtOAc) | XRPD results (Dried) ([3]; Heptane) | Visual observation 50° C. ([3]; Heptane) | Visual observation RT ([3]; Heptane) | XRPD results (Dried) ([3]; Isopropanol) | Visual observation 50° C. ([3]; Isopropanol) | Visual observation RT ([3]; Isopropanol) | further results |
| --- | --- | --- | --- | --- | --- | --- | --- | --- | --- | --- | --- | --- | --- | --- | --- | --- | --- | --- | --- | --- | --- |
| C=C1CC[C@@]2(O)C3Cc4ccc(OC(=O)OCCCCCCCCCCCCC)c5c4[C@@]2(CCN3CC2CC2)[C@H]1O5 [Compound 30, (4aS,7aS,12bS)-3-(cyclopropylmethyl)-4a-hydroxy-7-methylene-2,3,4,4a,5,6,7,7a-octahydro-1H-4,12-methanobenzofuro[3,2-e]isoquinolin-9-yl tridecyl carbonate] | 82.5% | 100% | 65.7% | 40.3% | 30.5% | 22.2% | 97.6% | 84.3% | – | – | – | – | – | – | – | – | – | – | – | – | Approximate Solubility (mg/mL) in Excipient: Sesame oil [2]: 252.55 to 398.6 mg/mL |
| CCCCCCCCCCOC(=O)Oc1ccc2c3c1O[C@H]1C(=O)CC[C@@]4(O)C(C2)N(CC2CC2)CC[C@]314 [Compound 10, (4aS,7aR,12bS)-3-(cyclopropylmethyl)-4a-hydroxy-7-oxo-2,3,4,4a,5,6,7,7a-octahydro-1H-4,12-methanobenzofuro[3,2-e]isoquinolin-9-yl decyl carbonate] | – | 100% | 0% | 0% | 0% | 0% | – | – | Pattern A | Clear | Slurry | Pattern A | Clear | Slurry | Pattern A | Slurry | Slurry | Pattern A | Clear | Slurry | XRPD results (Dried) ([3]; MTBE): Pattern A; Visual observation 50° C. ([3]; MTBE): Clear; Visual observation RT ([3]; MTBE): Clear; Comment: stability of initial crystal form (pattern A) [3, 6]: stable form. Same form (pattern A); Thermal Gravimetric Analysis, weight loss [4]: Weight loss of 0.3047% |
| CCCCCCCCOC(=O)Oc1ccc2c3c1O[C@H]1C(=O)CC[C@@]4(O)C(C2)N(CC2CC2)CC[C@]314 [Compound 23, (4aS,7aR,12bS)-3-(cyclopropylmethyl)-4a-hydroxy-7-oxo-2,3,4,4a,5,6,7,7a-octahydro-1H-4,12-methanobenzofuro[3,2-e]isoquinolin-9-yl octyl carbonate] | 98.7% | 10% | 0% | 0% | 0% | 0% | 101.6% | 95.6% | – | – | – | – | – | – | – | – | – | – | – | – | Approximate Solubility (mg/mL) in Excipient: Cottonseed oil ([2]; Cottonseed oil): >407.7 mg/mL; Approximate Solubility (mg/mL) in Excipient: Sesame oil [2]: >423.9 mg/mL |
| C=C1CC[C@@]2(O)C3Cc4ccc(OC(=O)OCCCCCCCCCCCCCCCC)c5c4[C@@]2(CCN3CC2CC2)[C@H]1O5 [Compound 19, (4aS,7aS,12bS)-3-(cyclopropylmethyl)-4a-hydroxy-7-methylene-2,3,4,4a,5,6,7,7a-octahydro-1H-4,12-methanobenzofuro[3,2-e]isoquinolin-9-yl hexadecyl carbonate] | – | 100% | 70.1% | 71.5% | 43.8% | 33.3% | – | – | Pattern A | Clear | Slurry | Pattern A | Clear | Slurry | Pattern A | Clear | Slurry | Pattern A | Clear | Slurry | XRPD results (Dried) ([3]; MTBE): Pattern A; Visual observation 50° C. ([3]; MTBE): Clear; Visual observation RT ([3]; MTBE): Clear; Comment: stability of initial crystal form (pattern A) [3, 6]: to be stable fomr. Same crystal form; Thermal Gravimetric Analysis, weight loss [4]: Weight loss of 0.1623% |
| C=C1CC[C@@]2(O)C3Cc4ccc(OC(=O)CCCCCCCCCCCCCCC)c5c4[C@@]2(CCN3CC2CC2)[C@H]1O5 [Compound 56, (4aS,7aS,12bS)-3-(cyclopropylmethyl)-4a-hydroxy-7-methylene-2,3,4,4a,5,6,7,7a-octahydro-1H-4,12-methanobenzofuro[3,2-e]isoquinolin-9-yl palmitate, reference compound] | – | 100% | 73.1% | 56.7% | 35.8% | 16.8% | – | – | – | – | – | – | – | – | – | – | – | – | – | – | Thermal Gravimetric Analysis, weight loss [4]: Weight loss of 0.1815% |
| C=C1CC[C@@]2(O)C3Cc4ccc(OC(=O)NC(C)(C)C)c5c4[C@@]2(CCN3CC2CC2)[C@H]1O5 [Compound 40, (4aS,7aS,12bS)-3-(cyclopropylmethyl)-4a-hydroxy-7-methylene-2,3,4,4a,5,6,7,7a-octahydro-1H-4,12-methanobenzofuro[3,2-e]isoquinolin-9-yl tert-butylcarbamate] | – | – | – | – | – | – | – | – | Amorphous | Clear | Slurry | Pattern A | Clear | Slurry | Pattern A | Slurry | Slurry | Amorphous | Clear | Slurry | XRPD results (Dried) ([3]; MTBE): Amorphous; Visual observation 50° C. ([3]; MTBE): Clear; Visual observation RT ([3]; MTBE): Clear; Comment: stability of initial crystal form (pattern A) [3, 6]: stable form. Same crystal form; X-ray Powder Diffraction ([4]; solid state drug substance, XRPD/PLM): Crystal form with partial |
| C=C1CC[C@@]2(O)C3Cc4ccc(OCOC(=O)CCCCCCCCCCCCC)c5c4[C@@]2(CCN3CC2CC2)[C@H]1O5 [Compound 45, (((4aS,7aS,12bS)-3-(cyclopropylmethyl)-4a-hydroxy-7-methylene-2,3,4,4a,5,6,7,7a-octahydro-1H-4,12-methanobenzofuro[3,2-e]isoquinolin-9-yl)oxy)methyl tetradecanoate] | 93.7% | – | – | – | – | – | 100.1% | 71.8% | – | – | – | – | – | – | – | – | – | – | – | – | AUC0-inf (ng · h/mL) prodrug ([5]; 30 mg/kg): 0.1 µg·h/mL; Half-life t1/2 (hour) prodrug ([5]; 30 mg/kg): 151 h; AUC0-inf (ng · h/mL) prodrug ([5]; 48 mg/kg): 0.267 µg·h/mL; Half-life t1/2 (hour) prodrug ([5]; 48 mg/kg): 171 h |
